The numbers were not newly measured in patent US20210244680A1, “WEARABLE LIPOSOMAL CANNABIDIOL TRANSDERMAL PATCH” (priority 2020, published 2021), which cites them from elsewhere.

The series concerns rats with arthritis. The following applies: topical gel containing CBD applied to rats with arthritis for 4 days.

Regarding `C=C(C)[C@@H]1CCC(C)=C[C@H]1c1c(O)cc(CCCCC)cc1O` [CBD, Cannabidiol], the “inflammation and signs of pain” value was “significant drop in inflammation and signs of pain”; the side effects result is “without additional side effects”.
